Measurements: patent US20190343853A1, “METHODS OF TREATING HYPERTENSION” (THERACOS SUB, LLC, priority 2018, published 2019)

Tests used:
[1] = system: spontaneously hypertensive rat, stroke prone strain (SHRSP); conditions: previously reported (Zhang 2011); cited from earlier work
[2] = system: subjects with seated office systolic blood pressure of ≥140 mm Hg and <180 mm Hg; assay: Study THR-1442-C-603A: double-blind placebo-controlled 12 week trial in a hypertensive population not pre-selected for diabetes; type: in vivo, human
Procedure: A qualified ABPM record contained no fewer than 64 measurements over an approximately 24 h period and a mean SBP≥135 mm Hg.
A total of 678 subjects were randomly assigned to the active arm or to the placebo arm.
The study was conducted in the United States at multiple clinical sites. The randomized population consisted of 409 male and 269 female participants with a mean age ±standard deviation of 58.5±11.74. […] 64.7% were self-declared Caucasian, 29.9% African-American, 1.6% Asian, 0.3% Native American/Native Alaskan, 0.1% Native Hawaiian/Other Pacific Islander, 1.0% Multiracial and 2.2% Other. 8.1% self-declared Hispanic or Latino ethnicity. The study population was obese, having a median body mass index (kg m^−2) of 31.9 and a mean weight of 98.3±35.0 kg. A history of diagnosed diabetes was elicited from 24.3% of the subjects and 18.0% were presently unmedicated for hypertension.
The baseline 24 h average SBP from ABPM was 147.3±9.93 and the DBP was 84.5±9.65. 11.7% of the subjects produced a baseline ABPM SBP≥160 mm Hg.
Following self-administration of investigational product for 12 weeks, subjects underwent ABPM to assess the potential treatment effect. After the first 300 subjects had completed 12 weeks of participation, the mean SBP was 140.90, corresponding to a decrease from baseline in the entire population of 6.4 mm Hg.
A total of 678 subjects were randomized, of whom 5 were excluded for major protocol violations. Of the remaining 673 participants, 307 out of 334 in the bexagliflozin arm and 319 out of 339 in the placebo arm completed the study. The arms were well-balanced in general by demographic characteristics. The population was predominantly male (60.5%) and Caucasian (65.2%) with the remainder by race predominantly of African heritage (29.4%). Participants of Latino ethnicity comprised 8.0% of the total. The mean age was 58.9 years and 24.8% were diabetic. The mean subject was obese with a BMI of 32.6 kg/m^2, and 81% reported at least one prescription for anti-hypertensive medication. ACE inhibitors and ARBs were the most commonly encountered agents. Calcium channel blockers, diuretics and β-blockers were the next most commonly encountered, in that order. The mean seated office blood pressure was 156/91 with a heart rate of 73. The mean ABPM at baseline was 147.5/85.0. Nearly all participants had preserved renal function.

[3] = system: subjects with diabetes; assay: Example 1/2: multicenter double-blind placebo-controlled 96 week trial, seated office blood pressure and blood-pressure TEAEs; type: in vivo, human
Procedure: In a multicenter double-blind placebo-controlled trial, subjects with diabetes were administered Compound 1, 20 mg per day or placebo for 96 weeks. The blood pressure of resting seated subjects was measured at every office visit. Although the study population was not specifically recruited to contain participants with hypertension, a fraction of the population was affected by the disease and the mean baseline systolic blood pressure of the entire study population was 127 mm Hg. The effects of Compound 1 and placebo on systolic and diastolic blood pressure as a function of time are shown in FIG. 5 (systolic) and FIG. 6 (diastolic).
A treatment emergent adverse event (TEAE) is an adverse event that develops during or immediately following the period of exposure to the investigational product in a clinical trial. An adverse event is any event that represents an unfavorable change in the health of the individual that is clinically significant—it may represent a new condition or status or materially worsened pre-existing condition. In the clinical trial of Example 1, hypertension was recorded as a TEAE in 2 subjects that had been administered Compound 1 and in 5 subjects administered placebo. […] One episode of hypotension was observed among subjects administered Compound 1 and none among subjects administered placebo. The lower incidence of hypertensive TEAEs and the single episode of hypotension are consistent with the antihypertensive effect of Compound 1. In addition, the observation of only a single episode of hypotension is notable because the mean systolic blood pressure at baseline was only 127 mm Hg, well below the 140 mm Hg level that demarks a widely adopted standard for the diagnosis of hypertension.

[4] = subjects with systolic blood pressure of 140 mm Hg or above at study entry, 20 mg per day, persisted for duration of trial

OC[C@H]1O[C@@H](c2ccc(Cl)c(Cc3ccc(OCCOC4CC4)cc3)c2)[C@H](O)[C@@H](O)[C@@H]1O [Compound 1, (2S,3R,4R,5S,6R)-2-(4-chloro-3-(4-(2-cyclopropoxyethoxy)benzyl)phenyl)-6-(hydroxymethyl)tetrahydro-2H-pyran-3,4,5-triol]
effect in SHRSP rat [1]: protective effects | proportion of subjects achieving a seated office DBP≤90 mm Hg ([2]; 20 mg tablets, 12 weeks): 0.65 | proportion of subjects achieving a seated office SBP≤140 mm Hg ([2]; 20 mg tablets, 12 weeks): 0.38 | placebo-adjusted change in seated office SBP from baseline ([2]; 20 mg tablets, 12 weeks, 95% confidence interval −6.83, −2.42, p<0.0001): −4.63 mm Hg | placebo-adjusted change in seated office DBP from baseline ([2]; 20 mg tablets, week 12, 95% CI −3.70, −0.91, p=0.0011): −2.31 mm Hg | anti-hypertensive effect over the 24 h ABPM data collection period (hourly change in blood pressure) ([2]; ABPM): did not show significant waning | placebo-adjusted reduction in ambulatory mean SBP from baseline to week 12 ([2]; ABPM, p=0.0025): 2.72 mm Hg | adverse events by percentage among participants ([2]; active arm, 12 weeks): 41.9% | adverse events leading to subject withdrawal or treatment discontinuation ([2]; active arm, 12 weeks): 1.8% | serious adverse events ([2]; active versus placebo arm): balanced between the arms | treatment effect by ABPM SBP measurement ([2]; subgroup: concomitant diuretic use, p=0.0021): −5.60 mm Hg | treatment effect by ABPM SBP measurement ([2]; subgroup: concomitant β-blocker use, p=0.0012): −6.26 mm Hg | treatment effect by ABPM SBP measurement ([2]; subgroup: history of diabetes, p=0.0023): −6.07 mm Hg | treatment effect by ABPM SBP measurement ([2]; subgroup: participants with stage 3 CKD, p=0.0571): −7.53 mm Hg | treatment effect by ABPM SBP measurement ([2]; subgroup: use of 3 or more anti-hypertensive medications, p=0.0071): −5.55 mm Hg | odds ratio for achieving seated office DBP≤90 mm Hg ([2]; versus placebo arm, 95% CI 1.13, 2.35, p=0.0094): 1.63 | odds ratio for achieving seated office SBP≤140 mm Hg ([2]; versus placebo arm, 95% CI 1.32, 2.62, p=0.0004): 1.86 | episodes of hypotension ([3]; 20 mg per day, 96 weeks): One | hypertension recorded as a TEAE ([3]; 20 mg per day, 96 weeks): 2 subjects | hypertensive crisis ([3]; 20 mg per day, 96 weeks): 0 subjects | propensity for producing deleterious reductions in blood pressure ([3]; mean systolic blood pressure at baseline 127 mm Hg): favorably low propensity | reduction in diastolic blood pressure [3, 4]: approximately 7 mm Hg | reduction in systolic blood pressure [3, 4]: approximately 12 mm Hg
